Measurements from US9113629B2, “4-amino-6-(4-substituted-phenyl)-picolinates and 6-amino-2-(4-substituted-phenyl)-pyrimidine-4-carboxylates and their use as herbicides” (DOW AGROSCIENCES LLC, priority 2013, dated 2015).

Legend:
[1] = tested on: TRZSS: wheat, including spring and winter (Triticum aestivum); experiment: Post-emergent Test III, herbicidal activity in wheat and barley; format: in vivo; details: Table 8, 21 d; for GR20 TRZSS: dose for 20 percent growth reduction; for pest or weed control at 35 g/ha / pest or weed control at 70 g/ha / pest or weed control at 140 g/ha: Triticum aestivum, post-emergence, 504 h, post-emergent, read-out: Visual Growth Reduction (%) 21 Days After Application TRZSS; for pest or weed control at 35 g/ha: 35 g ai/ha; for pest or weed control at 70 g/ha: 70 g ai/ha; for pest or weed control at 140 g/ha: 140 g ai/ha
Protocol: (§1) Post-emergent Test III. Seeds of the desired test plant species were planted in Sun Gro MetroMix® 306 planting mixture, which typically has a pH of 6.0 to 6.8 and an organic matter content of about 30 percent, in plastic pots with a surface area of 103.2 square centimeters (cm^2). When required to ensure good germination and healthy plants, a fungicide treatment and/or other chemical or physical treatment was applied. The plants were grown for 7-36 days (d) in a greenhouse with an approximate 14 hour (h) photoperiod which was maintained at about 18° C. during the day and 17° C. during the night. Nutrients and water were added on a regular basis and supplemental lighting was provided with overhead metal halide 1000-Watt lamps as necessary. The plants were employed for testing when they reached the second or third true leaf stage.
(§2) A weighed amount, determined by the highest rate to be tested, of each test compound was placed in a 25 mL glass vial and was dissolved in 4 mL of a 97:3 v/v mixture of acetone and DMSO to obtain concentrated stock solutions. […] The concentrated stock solutions obtained were diluted with 20 mL of an aqueous mixture containing acetone, water, isopropyl alcohol, DMSO, Agri-Dex crop oil concentrate, and X-77 surfactant in a 48:39:10:1.5:1.5:0.02 v/v ratio to obtain spray solutions containing the highest application rates. Additional application rates were obtained by serial dilution of 12 mL of the high rate solution into a solution containing 2 mL of 97:3 v/v mixture of acetone and DMSO and 10 mL of an aqueous mixture containing acetone, water, isopropyl alcohol, DMSO, Agri-Dex crop oil concentrate, and X-77 surfactant in a 48:39:10:1.5:1.5:0.02 v/v ratio to obtain ½×, ¼×, ⅛× and 1/16× rates of the high rate. Compound requirements are based upon a 12 mL application volume at a rate of 187 liters per hectare (L/ha). Formulated compounds were applied to the plant material with an overhead Mandel track sprayer equipped with 8002E nozzles calibrated to deliver 187 L/ha over an application area of 0.503 square meters at a spray height of 18 inches (43 cm) above the average plant canopy height. Control plants were sprayed in the same manner with the solvent blank.
(§3) The treated plants and control plants were placed in a greenhouse as described above and watered by subirrigation to prevent wash-off of the test compounds. After 21 d, the condition of the test plants as compared with that of the untreated plants was determined visually and scored on a scale of 0 to 100 percent where 0 corresponds to no injury and 100 corresponds to complete kill.
(§4) By applying the well-accepted probit analysis as described by J. Berkson in Journal of the American Statistical Society, 48, 565 (1953) and by D. Finney in “Probit Analysis” Cambridge University Press (1952), herbicidal injury of a specific compound at various rates can be used to calculate GR20, GR50, GR80 and GR90 values, which are defined as growth reduction factors that correspond to the effective dose of herbicide required to provide plant growth reduction (GR) of 20 percent, 50 percent, 80 percent and 90 percent, respectively. Probit analysis was applied to data collected from multiple dose rates of individual compounds utilizing the procedures explained in the following examples. The analysis of those dose rates is captured in the following tables.

[2] = tested on: KCHSC: kochia (Kochia scoparia); experiment: as above; format: in vivo; details: Table 8, 21 d; for pest or weed control at 35 g/ha / pest or weed control at 70 g/ha / pest or weed control at 140 g/ha: Bassia scoparia, post-emergence, 504 h, post-emergent, read-out: Visual Growth Reduction (%) 21 Days After Application KCHSC; for pest or weed control at 35 g/ha: 35 g ai/ha; for pest or weed control at 70 g/ha: 70 g ai/ha; for pest or weed control at 140 g/ha: 140 g ai/ha; for GR50 KCHSC: dose for 50 percent growth reduction; for GR50 KCHSC / GR80 KCHSC: probit analysis; for GR80 KCHSC: dose for 80 percent growth reduction
Protocol: as §1, §2, §3, §4

[3] = tested on: HORSS: barley, including spring and winter (Hordeum vulgare); experiment: as above; format: in vivo; details: Table 8, 21 d; for pest or weed control at 35 g/ha / pest or weed control at 70 g/ha / pest or weed control at 140 g/ha: Hordeum vulgare, post-emergence, 504 h, post-emergent, read-out: Visual Growth Reduction (%) 21 Days After Application HORSS; for pest or weed control at 35 g/ha: 35 g ai/ha; for pest or weed control at 70 g/ha: 70 g ai/ha; for pest or weed control at 140 g/ha: 140 g ai/ha; for GR20 HORSS: dose for 20 percent growth reduction
Protocol: as §1, §2, §3, §4

[4] = tested on: MATSS: scented mayweed (Matricaria chamomilla), pineappleweed (Matricaria matricarioides); experiment: as above; format: in vivo; details: Table 8, 21 d; for pest or weed control at 35 g/ha / pest or weed control at 70 g/ha / pest or weed control at 140 g/ha: Matricaria chamomilla, post-emergence, 504 h, post-emergent, read-out: Visual Growth Reduction (%) 21 Days After Application MATSS; for pest or weed control at 35 g/ha: 35 g ai/ha; for pest or weed control at 70 g/ha: 70 g ai/ha; for pest or weed control at 140 g/ha: 140 g ai/ha; for GR50 MATSS: dose for 50 percent growth reduction; for GR50 MATSS / GR80 MATSS: probit analysis; for GR80 MATSS: dose for 80 percent growth reduction
Protocol: as §1, §2, §3, §4

[5] = dose for 80 percent growth reduction, probit analysis

| melting point | Structure (SMILES) | GR20 TRZSS ([1]; probit analysis) | pest or weed control at 35 g/ha [1] | pest or weed control at 70 g/ha [1] | pest or weed control at 35 g/ha [2] | pest or weed control at 70 g/ha [2] | GR50 KCHSC [2] | GR80 KCHSC [2] | pest or weed control at 35 g/ha [3] | pest or weed control at 70 g/ha [3] | GR20 HORSS ([3]; probit analysis) | pest or weed control at 35 g/ha [4] | pest or weed control at 70 g/ha [4] | GR50 MATSS [4] | GR80 MATSS [4] | also measured |
| --- | --- | --- | --- | --- | --- | --- | --- | --- | --- | --- | --- | --- | --- | --- | --- | --- |
| – | COC(=O)c1nc(-c2ccc(C#N)c(F)c2)c(F)c(N)c1Cl [Compound 135, methyl 4-amino-3-chloro-6-(4-cyano-3-fluorophenyl)-5-fluoropicolinate] | 16 g ai/ha | 30 to 44% | 30 to 44% | 75 to 84% | 75 to 84% | 3 g ai/ha | 130 g ai/ha | 0 to 29% | 30 to 44% | 37 g ai/ha | 30 to 44% | 30 to 44% | 125 g ai/ha | >140 g ai/ha | GR80 TRZSS [1, 5]: >140 g ai/ha; pest or weed control at 140 g/ha [1]: 45 to 59%; pest or weed control at 140 g/ha [2]: 75 to 84%; pest or weed control at 140 g/ha [3]: 60 to 74%; GR80 HORSS [3, 5]: >140 g ai/ha; pest or weed control at 140 g/ha [4]: 45 to 59% |
| 193 to 194 °C | COC(=O)c1nc(-c2cc(F)c(I)cc2F)nc(N)c1OC [Compound 101] | – | – | – | – | – | – | – | – | – | – | – | – | – | – | – |
| 185.5 to 187 °C | Cc1c(-c2ccc(Br)cc2)nc(C(=O)O)c(Cl)c1N [Compound 78, 4-Amino-6-(4-bromophenyl)-3-chloro-5-methylpicolinic acid] | – | – | – | – | – | – | – | – | – | – | – | – | – | – | – |
| 142 to 144 °C | COC(=O)c1nc(-c2cc(F)c(I)cc2F)cc(N)c1Cl [Compound 56] | – | – | – | – | – | – | – | – | – | – | – | – | – | – | – |
| – | COc1c(N)nc(-c2ccc(I)c(F)c2)nc1C(=O)O [Compound 37, 6-Amino-2-(3-fluoro-4-iodophenyl)-5-methoxypyrimidine-4-carboxylic acid] | 3 g ai/ha | 75 to 84% | 85 to 94% | 45 to 59% | 60 to 74% | 34 g ai/ha | 119 g ai/ha | 60 to 74% | 75 to 84% | 5 g ai/ha | 60 to 74% | 60 to 74% | 21 g ai/ha | 77 g ai/ha | – |
| – | Nc1c(Cl)c(C(=O)O)nc(-c2ccc(Br)c(F)c2)c1Cl [Compound 43, 4-Amino-6-(4-bromo-3-fluorophenyl)-3,5-dichloropicolinic acid] | 1 g ai/ha | 85 to 94% | 95 to 100% | 60 to 74% | 85 to 94% | 11 g ai/ha | 41 g ai/ha | 95 to 100% | 95 to 100% | 1 g ai/ha | 85 to 94% | 95 to 100% | 3 g ai/ha | 7 g ai/ha | – |
| – | COC(=O)c1nc(-c2ccc(Br)c(F)c2)nc(N)c1OC [Compound 171, Methyl 6-amino-2-(4-bromo-3-fluorophenyl)-5-methoxypyrimidine-4-carboxylate] | 11 g ai/ha | 75 to 84% | 85 to 94% | 85 to 94% | 95 to 100% | – | 23 g ai/ha | 45 to 59% | 60 to 74% | 20 g ai/ha | 30 to 44% | 30 to 44% | >140 g ai/ha | >140 g ai/ha | – |
| – | COC(=O)c1nc(-c2ccc(I)c(F)c2)nc(N)c1OC [Compound 27, Methyl 6-amino-2-(3-fluoro-4-iodophenyl)-5-methoxypyrimidine-4-carboxylate] | 11 g ai/ha | 60 to 74% | 75 to 84% | 75 to 84% | 75 to 84% | 18 g ai/ha | 61 g ai/ha | 30 to 44% | 45 to 59% | 11 g ai/ha | 30 to 44% | 30 to 44% | 109 g ai/ha | >140 g ai/ha | – |
| – | Nc1c(Cl)c(C(=O)O)nc(-c2ccc(I)c(F)c2)c1Cl [Compound 145, 4-Amino-3,5-dichloro-6-(3-fluoro-4-iodophenyl)picolinic acid] | 1 g ai/ha | 85 to 94% | 85 to 94% | 60 to 74% | 60 to 74% | 37 g ai/ha | 112 g ai/ha | 85 to 94% | 95 to 100% | 1 g ai/ha | 95 to 100% | 95 to 100% | 3 g ai/ha | 10 g ai/ha | pest or weed control at 140 g/ha [1]: 85 to 94%; pest or weed control at 140 g/ha [2]: 75 to 84%; pest or weed control at 140 g/ha [3]: 95 to 100%; pest or weed control at 140 g/ha [4]: 95 to 100% |
